From the OPERA property sets (Mansouri et al. 2018)

| Structure (SMILES) | melting point [°C] | boiling point [°C] | log10 vapour pressure (mmHg) | log10 biodegradation half-life (days) | ready biodegradability | log10 Koc (L/kg) | log10 Henry constant (atm·m³/mol) | log10 Koa |
| --- | --- | --- | --- | --- | --- | --- | --- | --- |
| CC[C@]12CCCN3CCc4c(n(c5ccccc45)[C@@](O)(C(=O)OC)C1)[C@@H]32 | 232 | – | – | – | – | – | – | – |
| CCCC(C)OC(C)=O (centres undefined) | -100 | 130 | – | – | – | – | – | – |
| CC(C)=CCC[C@@H](C)[C@H]1CC[C@H]2[C@@H]3CC=C4C[C@@H](O)CC[C@]4(C)[C@H]3CC[C@]12C | 122 | – | – | – | – | – | – | – |
| C=COC=O | – | – | 2.5 | – | – | – | – | – |
| Oc1ccc2cccc(O)c2c1 | 180 | – | – | – | – | – | – | – |
| OCCc1ccc(O)cc1 | 90 | – | – | – | – | – | – | – |
| CC(F)(Cl)CCl (centres undefined) | -91.7 | 88.6 | – | – | – | – | – | – |
| O=c1[nH]cc(C(F)(F)F)c(=O)[nH]1 | 316 | – | – | – | – | – | – | – |
| CCCCCCCCCCCCCCCCCCCCCCCCC | 54 | 402 | -5.82 | 2.08 | readily biodegradable | – | – | – |
| C[C@H](CCC(=O)O)[C@H]1CC[C@H]2[C@@H]3[C@H](O)C[C@@H]4C[C@H](O)CC[C@]4(C)[C@H]3C[C@H](O)[C@]12C | 198 | – | – | – | – | – | – | – |
| CC(=O)OCCOC(C)=O | -31 | 190 | -1.11 | – | readily biodegradable | – | – | – |
| CCC(C(=O)O)c1ccc(-c2ccccc2)cc1 (centres undefined) | 124 | – | – | – | – | – | – | – |
| CCCC(=O)OC(C)C | – | 130 | – | – | – | – | – | – |
| CCS(=O)(=O)c1nnc(N(C)C(=O)NC)s1 | 156 | – | – | – | – | – | – | – |
| O=CNC(N1CCN(C(NC=O)C(Cl)(Cl)Cl)CC1)C(Cl)(Cl)Cl (centres undefined) | – | – | -6.7 | – | – | 2.3 | – | – |
| Nc1c(Br)cc(Br)c2c1C(=O)c1ccccc1C2=O | 221 | – | – | – | – | – | – | – |
| CCCCCCCC#N | -45.6 | 205 | -0.409 | – | – | – | – | – |
| CCCCCCCCCCCCCCCC(=O)OCC | 24 | – | -4.63 | – | – | – | – | – |
| O=[N+]([O-])c1cccc2cccc(Cl)c12 | 95.8 | – | – | – | – | – | – | – |
| SCc1ccc(Cl)cc1 | 19.5 | – | – | – | – | – | – | – |

| Structure (SMILES) | melting point [°C] | boiling point [°C] | log10 vapour pressure (mmHg) | log10 biodegradation half-life (days) | ready biodegradability | log10 Koc (L/kg) | log10 Henry constant (atm·m³/mol) | log10 Koa |
| --- | --- | --- | --- | --- | --- | --- | --- | --- |
| O=C(O)CCc1nc(-c2ccccc2)c(-c2ccccc2)o1 | 161 | – | – | – | – | – | – | – |
| Cc1ccc2c(C)cccc2c1C | 33.5 | – | – | – | – | – | – | – |
| CC(C)(C)OC(=O)CC(=O)OC(C)(C)C | -6 | – | – | – | – | – | – | – |
| C#CC(C)N(C(=O)CCl)c1ccccc1 (centres undefined) | 43.5 | – | – | – | – | – | – | – |
| CCOc1ccc2c(c1)C(C)=CC(C)(C)N2 | – | – | – | – | not readily biodegradable | – | – | – |
| N#CCc1ccccc1[N+](=O)[O-] | 84 | – | – | – | – | – | – | – |
| O=CCCl | -16.3 | 85.5 | 1.81 | – | – | – | – | – |
| CC1=Nc2ccc(Cl)cc2S(=O)(=O)N1 | 330 | – | – | – | – | – | – | – |
| CCCCC(=O)CCCC | -3.8 | 188 | -0.258 | – | – | – | – | – |
| Cc1ccc([N+](=O)[O-])c(C)c1 | 9 | 247 | -1.24 | – | – | – | – | – |
| OC(C(F)(F)F)(C(F)(F)F)C(F)(F)F | – | 45 | – | – | – | – | – | – |
| C=Cc1ccc(N)cc1 | 23.5 | – | – | – | – | – | – | – |
| C=CC1CC2C=CC1C2 (centres undefined) | -80 | 140 | 0.992 | – | – | – | – | – |
| CC(C)(C)c1ccc(CCOc2ncnc3ccccc23)cc1 | 78.5 | – | -7.59 | – | – | – | – | – |
| COc1cccc([N+](=O)[O-])c1 | 38.5 | 258 | – | – | not readily biodegradable | – | – | – |
| O=c1c2ccccc2nc2n1CCc1c-2[nH]c2ccccc12 | 260 | – | – | – | – | – | – | – |
| O=C1CSC(=O)N1 | 128 | – | – | – | – | – | – | – |
| CCC1CC1 | -149 | 35.9 | – | – | – | – | – | – |
| CCN1C(=O)NC(c2ccccc2)C1=O (centres undefined) | 94 | – | – | – | – | – | – | – |
| CC(CC(C)(C)C)CC(C)(C)CC(C)(C)C (centres undefined) | – | – | – | – | not readily biodegradable | – | – | – |

| Structure (SMILES) | melting point [°C] | boiling point [°C] | log10 vapour pressure (mmHg) | log10 biodegradation half-life (days) | ready biodegradability | log10 Koc (L/kg) | log10 Henry constant (atm·m³/mol) | log10 Koa |
| --- | --- | --- | --- | --- | --- | --- | --- | --- |
| CCN(CC)C(=O)c1cccnc1 | 25 | 298 | – | – | – | – | – | – |
| CC(C)=O | -96.5 | 55.8 | 2.36 | – | readily biodegradable | – | -4.46 | 2.31 |
| C1CCCC1 | -93.8 | 49.3 | 2.5 | 1.7 | – | – | -0.818 | – |
| CC(O)CNC1CCCCC1 (centres undefined) | – | – | -1.8 | – | – | – | – | – |
| C=CC(C)O (centres undefined) | – | – | – | – | readily biodegradable | – | – | – |
| CCCCCCCCCCCCCCCCCC(=O)OC(C)C | 28 | – | -4.4 | – | – | – | – | – |
| O=C1CN(/N=C/c2ccc([N+](=O)[O-])o2)C(=O)N1CN1CCOCC1 | 206 | – | – | – | – | – | – | – |
| Cc1c(Cl)cccc1Nc1ccccc1C(=O)O | 207 | – | – | – | not readily biodegradable | – | – | – |
| Cc1cc(N)ccc1N | 64 | 274 | – | – | – | – | – | – |
| Cc1ccc(Cc2ccccc2)cc1 | -30 | 286 | – | – | – | – | – | – |
| CC1=CC(=O)C(C(C)C)CC1 (centres undefined) | – | 233 | – | – | – | – | – | – |
| O=C(O)c1cc(Oc2ccc(C(F)(F)F)cc2Cl)ccc1[N+](=O)[O-] | 150 | – | – | – | – | 2.05 | – | – |
| COc1cc(Oc2ccc(Cl)cc2Cl)ccc1[N+](=O)[O-] | 114 | – | -4.85 | – | – | – | – | – |
| CCC(C(N)=O)n1nnc2ccccc21 (centres undefined) | 143 | – | – | – | – | – | – | – |
| CCCCC[C@@H](O)CC | -45 | 171 | -0.592 | – | – | – | – | – |
| CN=C(O)/C(=N/OC)c1ccccc1Oc1ccccc1 | 88 | – | -6.87 | – | – | – | – | – |
| Clc1cc(Cl)c2cc(Cl)c(Cl)c(Cl)c2c1 | – | – | -5.68 | – | – | – | – | 8.82 |
| CCOP(=S)(S)OCC | -10 | – | – | – | not readily biodegradable | – | – | – |
